ChEMBL document CHEMBL1201862, “PubChem BioAssay data set” (2004)
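Results reflect a 48-hour exposure of cells in 96-well plates to compound at five concentrations. GI50 marks 50% less growth.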 The source made the active and inactive calls. Cut-off read from the data, not from the text of the source: active = GI50 up to about 1.1 µM and inactive = higher.

Key:
Experiment in all cases: inhibition of tumour cell growth, NCI panel, 48 h
A549 = test system: A549
DU-145 = test system: DU-145
EKVX = test system: EKVX
HOP-92 = test system: HOP-92
IGROV-1 = test system: IGROV-1
MDA-MB-231 = test system: MDA-MB-231
MDA-MB-435 = test system: MDA-MB-435
MDA-N = test system: MDA-N
NCI-H226 = test system: NCI-H226
OVCAR-4 = test system: OVCAR-4
OVCAR-8 = test system: OVCAR-8
PC-3 = test system: PC-3
RPMI-8226 = test system: RPMI-8226
SF-268 = test system: SF-268
T47D = test system: T47D
UACC-257 = test system: UACC-257
HL-60 = test system: HL-60
RXF 393 = test system: RXF 393
SR = test system: SR

SMILES	GI50 (A549)	GI50 (DU-145)	GI50 (EKVX)	GI50 (HOP-92)	GI50 (IGROV-1)	GI50 (MDA-MB-231)	GI50 (MDA-MB-435)	GI50 (MDA-N)	GI50 (NCI-H226)	GI50 (OVCAR-4)	GI50 (OVCAR-8)	GI50 (PC-3)	GI50 (RPMI-8226)	GI50 (SF-268)	GI50 (T47D)	GI50 (UACC-257)	GI50 (HL-60)	GI50 (RXF 393)	GI50 (SR)
COc1ccc2c(c1)-c1[nH]c3ccccc3c1CC2	15.2 µM (inactive)	17.9 µM (inactive)	10.1 µM (inactive)	17.1 µM (inactive)	3.9 µM (inactive)	16.8 µM (inactive)	16.6 µM (inactive)	16 µM (inactive)	13.3 µM (inactive)	17.1 µM (inactive)	12.6 µM (inactive)	14.9 µM (inactive)	20.4 µM (inactive)	14.9 µM (inactive)	13.5 µM (inactive)	16.3 µM (inactive)			
O=C(OC1CCC2OOC1O2)c1ccc([N+](=O)[O-])cc1 (centres undefined)	> 100 µM (inactive)		> 100 µM (inactive)		> 100 µM (inactive)				> 100 µM (inactive)	> 100 µM (inactive)	> 100 µM (inactive)		> 100 µM (inactive)	> 100 µM (inactive)		> 100 µM (inactive)	> 100 µM (inactive)	> 100 µM (inactive)	> 100 µM (inactive)
C=CCCC1(CCP(=O)(c2ccccc2)c2ccccc2)OCCO1	> 100 µM (inactive)	> 100 µM (inactive)	> 100 µM (inactive)		> 100 µM (inactive)	> 100 µM (inactive)	> 100 µM (inactive)	> 100 µM (inactive)			> 100 µM (inactive)	> 100 µM (inactive)	> 100 µM (inactive)	> 100 µM (inactive)		> 100 µM (inactive)	> 100 µM (inactive)	> 100 µM (inactive)	> 100 µM (inactive)
CN(C)CCCNc1ccnc2c([N+](=O)[O-])cccc12	28.2 µM (inactive)		10.5 µM (inactive)						> 100 µM (inactive)	15.2 µM (inactive)	20.7 µM (inactive)		21.6 µM (inactive)	19.1 µM (inactive)		15.5 µM (inactive)	> 10 µM (inactive)		27.9 µM (inactive)
COc1cc2c(cc1O)CCN[C@@]21CS[C@H]2c3c(OC(C)=O)c(C)c4c(c3C(COC1=O)N1C2C2NC(Cc3cc(C)c(OC)c(O)c32)[C@@H]1O)OCO4 (some centres undefined)	< 0.01 µM (active)	< 0.01 µM (active)	< 0.01 µM (active)	< 0.01 µM (active)	< 0.01 µM (active)	< 0.01 µM (active)	< 0.01 µM (active)			< 0.01 µM (active)	< 0.01 µM (active)	< 0.01 µM (active)	< 0.01 µM (active)	< 0.01 µM (active)	< 0.01 µM (active)	< 0.01 µM (active)	< 0.01 µM (active)	< 0.01 µM (active)	
